The source made the active and inactive calls.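 The calls were made as follows: active = fitted curve reaches 40% activation below the top valid tested dose, in every test run; inconclusive = test runs disagree on the call; inactive = the rest, including effects opposite to the expected direction.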

One assay can be described thus: E-selectin inducers in HUVECs, dose response, imaging, HUVEC, cherry-picked samples (AID 977605).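 Also: signal is the share of imaged cells scored positive for E-selectin.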 To be noted: HUVEC E-selectin immunostaining, at 18 µM (top of the series), percent of TNF-alpha response over vehicle.
On to `CN1c2ccc(C#Cc3cccnc3)cc2[C@@H]2[C@@H](CCN2C(=O)C2CCC2)[C@H]1CO`, for which the activation is -0.065% (inactive).

The assay is the same for the next values; noted with them: HUVEC E-selectin immunostaining, at 19.5 µM (top of the series).
Consider `CN1CCN(c2cn[nH]c(=O)c2Cl)CC1`, for which the activation is -0.235% (inactive).

Take `Cc1ccc(-c2nc3ccccc3c(=O)n2-c2cccc(O)c2)cc1`: the activation is 0.249% (inactive).

Still in this assay, the particulars now being: HUVEC E-selectin immunostaining, at 19.5 µM (top of the series), percent of TNF-alpha response over vehicle.
For `COc1ccc(S(=O)(=O)N(C)C[C@H]2Oc3ccc(NC(=O)CCCN(C)C)cc3C(=O)N([C@@H](C)CO)C[C@@H]2C)cc1`, the activation is -0.152% (inactive).

As for `C[C@H]1CN([C@@H](C)CO)C(=O)c2cccc(NC(=O)Nc3ccc(F)cc3)c2O[C@H]1CN(C)CC1CCCCC1`, the activation was -0.099% (inactive).

Turning to `Cc1ccc(COc2ccc(/C=N/O)cc2)cc1`, the activation is -0.083% (inactive).

Consider `Cc1noc(C)c1NC(=O)N(C)C[C@H]1Oc2ccc(NC(=O)c3ccncc3)cc2C(=O)N([C@H](C)CO)C[C@@H]1C`, for which the activation is -0.129% (inactive).

`C[C@@H]1CN([C@H](C)CO)C(=O)c2cc(NC(=O)Cc3cn(C)c4ccccc34)ccc2O[C@H]1CN(C)Cc1ccc(Cl)c(Cl)c1`: the activation is 4.38% (inactive).

As to `C[C@@H]1CN([C@H](C)CO)C(=O)c2cccc(NS(=O)(=O)c3cn(C)cn3)c2O[C@@H]1CN(C)Cc1ccc(Cl)c(Cl)c1`, the activation was 0.02% (inactive).

Regarding `OC(CSc1ccc(F)cc1)CN1CCN(c2ccccc2)CC1` (stereo unspecified), the activation is -0.165% (inactive).

In the case of `C[C@@H]1CN([C@H](C)CO)C(=O)c2cc(NC(=O)CCC(F)(F)F)ccc2O[C@@H]1CN(C)Cc1ccc(C(F)(F)F)cc1`, the activation was 0.048% (inactive).

Take `C[C@@H]1CN([C@H](C)CO)C(=O)Cc2cc(NC(=O)Nc3ccccc3)ccc2O[C@@H]1CN(C)C`: the activation is 4.89% (inactive).

`C[C@H](CO)N1C[C@H](C)[C@@H](CN(C)Cc2ccc(Oc3ccccc3)cc2)Oc2ccc(NS(C)(=O)=O)cc2CC1=O`: the activation is 0.311% (inactive).

On to `Cc1ccccc1NC(=O)c1cc(S(=O)(=O)Nc2cccc(C(=O)O)c2)ccc1Cl`, for which the activation was 0.3% (inactive).

As for `COc1ccc(S(=O)(=O)N(C)C[C@@H]2Oc3ccc(NC(=O)c4ccncc4)cc3C(=O)N([C@@H](C)CO)C[C@@H]2C)cc1`, the activation is -0.183% (inactive).

Consider `COc1ccc(S(=O)(=O)Nc2cccc3c2O[C@H](CN(C)C(=O)Nc2c(C)noc2C)[C@H](C)CN([C@H](C)CO)C3=O)cc1`, for which the activation was -0.109% (inactive).

With `CC(C)NC(=O)N(C)C[C@@H]1Oc2ccc(NC(=O)CCCN(C)C)cc2C(=O)N([C@@H](C)CO)C[C@H]1C`, the activation is -0.112% (inactive).

With `C[C@@H]1CN([C@H](C)CO)C(=O)Cc2cc(NC(=O)CCCCCC(=O)Nc3ccccc3N)ccc2O[C@H]1CN(C)C(=O)Nc1ccc2c(c1)OCO2`, the activation was -0.123% (inactive).

Take `Fc1ccc(NC(=S)N2CCN(c3cccc(C(F)(F)F)c3)CC2)cc1`: the activation is -0.235% (inactive).

As for `C[C@H](CO)N1C[C@H](C)[C@@H](CN(C)Cc2ccc(C(F)(F)F)cc2)Oc2ccc(NC(=O)CCC(F)(F)F)cc2C1=O`, the activation is 0.441% (inactive).

With `C[C@H](CO)N1C[C@H](C)[C@H](CN(C)CC2CC2)Oc2ccc(NC(=O)Cc3ccccc3)cc2CC1=O`, the activation is 0.216% (inactive).

As for `CCOc1ccc2ncc(S(=O)(=O)c3ccc(C)cc3)c(N3CCC4(CC3)OCCO4)c2c1`, the activation is -0.045% (inactive).

Take `C[C@H](CO)N1C[C@H](C)[C@H](CN(C)Cc2ccc(Cl)c(Cl)c2)Oc2c(NC(=O)CCCCCC(=O)Nc3ccccc3N)cccc2C1=O`: the activation is 0.173% (inactive).

In the case of `C[C@@H]1CN([C@@H](C)CO)C(=O)Cc2cc(NC(=O)c3ccncc3)ccc2O[C@@H]1CN(C)C(=O)Nc1ccc(C(F)(F)F)cc1`, the activation was -0.044% (inactive).

On to `COc1ccc(NS(=O)(=O)c2cccc(Cl)c2Cl)cc1S(=O)(=O)N1CCCCC1`, for which the activation was -0.061% (inactive).

As to `CN(CC(=O)Nc1ccc(Cl)c(Cl)c1)C1CCCCC1`, the activation was -0.064% (inactive).

Consider `O=C(COC(=O)CCC(=O)c1ccc(F)cc1)Nc1cccc(S(=O)(=O)N2CCCC2)c1`, for which the activation is 2.61% (inactive).

As for `COc1ccccc1-c1c(C)nn2c(NCCN3CCCC3)cc(C)nc12`, the activation was 0.061% (inactive).

Turning to `CN(CC(=O)Nc1ccccc1Br)C(=O)CNC(=O)C1CCCCC1`, the activation was 0.383% (inactive).

In the case of `O=C(Nc1cccc(C(F)(F)F)c1)c1cc[n+]([O-])cc1`, the activation was 0.066% (inactive).

Take `CC(C)NC(=O)N(C)C[C@H]1Oc2ccc(NC(=O)CCC(F)(F)F)cc2CC(=O)N([C@H](C)CO)C[C@@H]1C`: the activation was -0.115% (inactive).

Take `CCOC(=O)c1cccc(NC(=O)Nc2ccc3c(c2)C(=O)OC3)c1`: the activation was 0.013% (inactive).

Regarding `Cc1ccc(S(=O)(=O)N(C)C[C@H]2Oc3ccc(NC(=O)CCCN(C)C)cc3C(=O)N([C@H](C)CO)C[C@H]2C)cc1`, the activation is -0.247% (inactive).

With `C[C@@H]1CN([C@@H](C)CO)C(=O)c2cc(NC(=O)NC3CCCCC3)ccc2O[C@@H]1CN(C)S(=O)(=O)c1ccc(Cl)cc1`, the activation is -0.037% (inactive).

With `O=C(O)CCC(=O)NCC(=O)c1ccc(F)cc1`, the activation is -0.239% (inactive).

As for `CCCCNC(=O)N1c2ccccc2CC1C` (stereo unspecified), the activation was 0.083% (inactive).

In the case of `Cc1ccsc1CN(C)Cc1nc(C2CC2)no1`, the activation was 1.75% (inactive).

`CCOC(=O)[C@]12CCCC=C1N(CCC1=CCCCC1)C(=O)[C@H](CC(=O)NCCC(C)C)C2`: the activation is 7.1% (inactive).

On to `CC(C)NC(=O)Nc1ccc2c(c1)C(=O)N(C)[C@@H]1CC[C@@H](CC(=O)NCC(F)(F)F)O[C@@H]1CO2`, for which the activation is 0.147% (inactive).

In the case of `COc1ccc(S(=O)(=O)Nc2ccc3c(c2)CC(=O)N([C@H](C)CO)C[C@@H](C)[C@H](CN(C)C(=O)NC2CCCCC2)O3)cc1`, the activation was -0.114% (inactive).

Turning to `C[C@@H]1CN([C@H](C)CO)S(=O)(=O)c2ccc(-c3ccc(F)cc3)cc2O[C@@H]1CN(C)CC1CC1`, the activation was 0.158% (inactive).

For the molecule `O=C1CC(N2CCSCC2)C(=O)N1c1cccc(Br)c1` (stereo unspecified), the activation is -0.085% (inactive).

Consider `C[C@H](CO)N1C[C@H](C)[C@H](CN(C)Cc2ccc(Oc3ccccc3)cc2)Oc2c(NC(=O)C3CCOCC3)cccc2C1=O`, for which the activation was 6.04% (inactive).

Take `C[C@@H]1CN([C@H](C)CO)C(=O)Cc2cc(NS(=O)(=O)c3ccc(F)cc3)ccc2O[C@@H]1CN(C)S(=O)(=O)c1ccc(Cl)cc1`: the activation was 1.34% (inactive).

For the molecule `COc1ccc(OCC(O)CNC(=O)c2ccccc2)cc1` (stereo unspecified), the activation was 4.38% (inactive).

For the molecule `Cc1[nH]c(=O)c(C#N)cc1-c1ccncc1`, the activation was -0.055% (inactive).

Regarding `Cc1cccc(NS(=O)(=O)c2csc(C(N)=O)c2)c1C`, the activation was 0.111% (inactive).

With `COc1cc(CC2C(=O)Nc3ccccc32)cc(C)c1O` (stereo unspecified), the activation was 36.1% (inactive).

Take `C[C@H]1CN([C@@H](C)CO)C(=O)c2cc(NC(=O)CCN3CCOCC3)ccc2O[C@H]1CN(C)S(=O)(=O)c1ccc(Cl)cc1`: the activation was -0.234% (inactive).

As for `CC(C)CC#Cc1ccc2c(c1)O[C@H](CN(C)C(=O)c1ccccc1)[C@H](C)CN([C@@H](C)CO)S2(=O)=O`, the activation was -0.183% (inactive).

In the case of `C[C@@H]1CN([C@@H](C)CO)C(=O)Cc2cc(NC(=O)Nc3ccc(F)cc3)ccc2O[C@H]1CN(C)C(=O)Nc1ccc(C(F)(F)F)cc1`, the activation was -0.14% (inactive).

On to `COc1ccc2sc(-c3ccccc3OC)c(-c3ccc(O)cc3)c2c1`, for which the activation was -0.095% (inactive).

`O=C1Nc2ccccc2C1Cc1ccccn1` (stereo unspecified): the activation is -0.092% (inactive).

`CC1CCCC(C)N1C(=O)CSc1nc2c(c(=O)n(C)c(=O)n2C)n1C` (stereo unspecified): the activation was -0.005% (inactive).

Regarding `CC(C)NC(=O)N(C)C[C@@H]1Oc2c(NC(=O)c3cnccn3)cccc2C(=O)N([C@@H](C)CO)C[C@@H]1C`, the activation was -0.012% (inactive).

As to `C[C@@H]1CN([C@@H](C)CO)C(=O)c2cc(NS(=O)(=O)c3cccs3)ccc2O[C@H]1CN(C)C(=O)Nc1ccc2c(c1)OCO2`, the activation is -0.287% (inactive).

Take `CCN(Cc1ccccc1)S(=O)(=O)c1ccc(OC)c2ncccc12`: the activation was -0.178% (inactive).

`C[C@@H]1CN([C@@H](C)CO)C(=O)Cc2cc(NC(=O)c3ccncc3)ccc2O[C@@H]1CN(C)S(C)(=O)=O`: the activation was 4.61% (inactive).

The same assay, now with this note: HUVEC E-selectin immunostaining, at 21 µM (top of the series), percent of TNF-alpha response over vehicle.
As for `C[C@H]1CN([C@@H](C)CO)C(=O)c2cc(NS(=O)(=O)c3cccs3)ccc2O[C@H]1CN(C)S(C)(=O)=O`, the activation was 0.402% (inactive).

Consider `Cc1noc(C)c1NC(=O)N(C)C[C@@H]1Oc2ccc(NS(=O)(=O)c3cccs3)cc2CC(=O)N([C@H](C)CO)C[C@@H]1C`, for which the activation was 10.8% (inactive).

With `COc1ccc(NC(=O)N(C)C[C@H]2Oc3ccc(NC(=O)Cc4cn(C)c5ccccc45)cc3C(=O)N([C@H](C)CO)C[C@@H]2C)cc1`, the activation was 7.04% (inactive).

With `C[C@@H]1CN([C@@H](C)CO)C(=O)Cc2cc(NC(=O)Cc3ccccc3)ccc2O[C@@H]1CN(C)Cc1ccncc1`, the activation was -0.043% (inactive).

With `C[C@H]1CN([C@@H](C)CO)C(=O)c2cc(NC(=O)Nc3ccc(C(F)(F)F)cc3)ccc2O[C@@H]1CN(C)S(=O)(=O)c1ccccc1`, the activation is 0.012% (inactive).

For the molecule `C[C@@H]1CN([C@H](C)CO)C(=O)Cc2cc(NC(=O)Nc3ccc(F)cc3)ccc2O[C@@H]1CN(C)S(=O)(=O)c1ccc(Cl)cc1`, the activation is 0.732% (inactive).

Consider `CCNC(=O)C[C@@H]1CC[C@@H]2[C@@H](COc3ccc(NC(=O)Nc4cccc(OC)c4)cc3C(=O)N2C)O1`, for which the activation is 0.153% (inactive).

For the molecule `COc1ccc(S(=O)(=O)Nc2ccc3c(c2)CC(=O)N([C@@H](C)CO)C[C@@H](C)[C@@H](CN(C)C(=O)NC2CCCCC2)O3)cc1`, the activation is -0.169% (inactive).

The values above are taken from PubChem BioAssay AID977605 (Broad Institute, 2014).
